The test system of one data set is HBV DNA. Put plainly: Anti-HBV activity in HepDE19 cells (HBV DNA dot-blot). In kind it is cell-based, Hepatitis B virus (HBV). The text has this:
Cells and culture conditions: HepDE19 (Haitao Guo et al, Journal of Virology, 81, November 2007, 12472-12484; Richeng Mao et al, Journal of Virology, 85, January 2011, 1048-1057) cells were derived from HepG2 (ATCC, American Type Culture Collection) cells through transfection with pTet-off plasmid (Clontech) that expresses the Tet-responsive transcriptional activator and pTREHBVDE plasmid in which HBV pgRNA expression is controlled by a CMV early promoter with a tetracycline-responsive element. The transfected cells were selected with G418 (also known as Genticin, purchased from Invitrogen). […] These cells were maintained in Dulbecco's modified Eagle's medium (DMEM)-F12 medium (Invitrogen) supplemented with 10% fetal bovine serum, 100 U/ml penicillin, and 100 μg/ml streptomycin, 0.5 mg/ml of G418 and 1 μg/ml tetracycline.
Anti-HBV activity and cytotoxicity: HepDE19 cells were seeded into 96-well plates (3×10^4 cells/well) with tetracycline-free medium and incubated overnight at 37° C. The test or control compounds were serially half-log diluted with medium and added into the plates (the final concentration of DMSO kept at 0.5% in each well). Five days after compound treatment, cells were washed with PBS and lysed with 50 mM Tris-1 mM EDTA-0.2% CA-630 (pH 8.0) at 37° C. for 20 min. After centrifugation to remove nuclei and other debris, the supernatant was transferred into a new plate and incubated with 2M NaOH/20×SSC (3M NaCl, 0.3M Sodium citrate, pH7.0) at rt for 30 min. Then the samples were transferred to nylon membrane and neutralized with 1M Tris (pH7.4)/2M NaCl. The presence of HBV DNA was detected by dot-blot with DIG-labeled HBV specific DNA probe and quantified by dot density. The compound concentrations that inhibited HBV DNA by 50% (EC50) were determined (See Table 1).

The nature of a further data set: in vitro. The note with it: human. The protocol: The transfected cells were selected with G418 (also known as Genticin, purchased from Invitrogen). […] These cells were maintained in Dulbecco's modified Eagle's medium (DMEM)-F12 medium (Invitrogen) supplemented with 10% fetal bovine serum, 100 U/ml penicillin, and 100 μg/ml streptomycin, 0.5 mg/ml of G418 and 1 μg/ml tetracycline.
To determine if the anti-HBV effect of compound is due to cytotoxicity, HepDE 19 cells (5×10^3 cells/well) were seeded into 96-well plates and compounds were treated as described above. […] Four hours after incubation at 37° C., the absorbance at wavelengths of 450 nm and 630 nm (OD450 and OD630) was recorded by a plate reader.

Setting [1] is: Hepatitis B virus, 120 h, HepDE19 cells, five days after compound treatment, concentration that inhibited HBV DNA by 50%, read-out: HepDe19 EC50.
Where [2] appears, read: Hepatitis B virus, HepDE19, 120 h, read-out: HepDe19 EC50.

Molecules are shown by their SMILES. pEC50: −log10 of the molar value. Like-named read-outs stand apart in the source and are kept apart here.

The pEC50 is −log10 of the EC50, conventionally taken in molar units.

For the compound `COC(=O)C1=C(CN2CCOC[C@H]2C(=O)OC)NC(c2nccs2)=NC1(C)c1ccc(F)c(F)c1` (stereo in doubt) [Example 15, 4-[(S)-6-(3,4-Difluoro-phenyl)-5-methoxycarbonyl-6-methyl-2-thiazol-2-yl-3,6-dihydro-pyrimidin-4-ylmethyl]-morpholine-3-carboxylic acid methyl ester], the pEC50 in the data set with HBV DNA (setting [1]) was 6.25. For the same compound, the CC50 at 5 days in the data set “in vitro” is > 100 µM.
The corresponding values for `COC(=O)C1=C(CN2CC(F)(F)C[C@H]2C(=O)OC)NC(c2ccc(F)cn2)=NC1(C)c1ccc(F)cc1` (stereo in doubt) [Example 17, 6-(4,4-Difluoro-2-methoxycarbonyl-pyrrolidin-1-ylmethyl)-4-(4-fluoro-phenyl)-2-(5-fluoro-pyridin-2-yl)-4-methyl-1,4-dihydro-pyrimidine-5-carboxylic acid methyl ester] are 6.23 and 90 µM.
For `COC(=O)C1=C(COC(C)(C)C(=O)OC)NC(c2nccs2)=NC1(C)c1ccc(F)cc1` (stereo not drawn) [Example 1, 4-(4-Fluoro-phenyl)-6-(1-methoxycarbonyl-1-methyl-ethoxymethyl)-4-methyl-2-thiazol-2-yl-1,4-dihydro-pyrimidine-5-carboxylic acid methyl ester], the pEC50 in the data set with HBV DNA (setting [1]) is 4.58. The CC50 at 5 days in the data set “in vitro” was > 100 µM.
The corresponding values for `COC(=O)C1=C(CN2CCOC[C@H]2C(=O)OC)NC(c2nccs2)=NC1(C)c1ccc(F)cc1` (stereo partly drawn) [Example 5, 4-[6-(4-Fluoro-phenyl)-5-methoxycarbonyl-6-methyl-2-thiazol-2-yl-3,6-dihydro-pyrimidin-4-ylmethyl]-morpholine-(S)-3-carboxylic acid methyl ester] are 6.15 and > 100 µM.
In the case of `COC(=O)C1=C(CN2CCOC[C@@H]2C(=O)O)NC(c2ccc(F)cn2)=NC1(C)c1ccc(F)cc1` (stereo partly drawn) [Example 9, 4-[6-(4-Fluoro-phenyl)-2-(5-fluoro-pyridin-2-yl)-5-methoxycarbonyl-6-methyl-3,6-dihydro-pyrimidin-4-ylmethyl]-morpholine-(R)-3-carboxylic acid], in the data set with HBV DNA (setting [1]), the pEC50 was 5.38. For the same compound, in the data set “in vitro”, the CC50 at 5 days is > 100 µM.
For the compound `COC(=O)C1=C(CN2CCOC[C@H]2C(=O)O)NC(c2ccc(F)cn2)=NC1(C)c1ccc(F)cc1` (stereo partly drawn) [Example 10, 4-[6-(4-Fluoro-phenyl)-2-(5-fluoro-pyridin-2-yl)-5-methoxycarbonyl-6-methyl-3,6-dihydro-pyrimidin-4-ylmethyl]-morpholine-(S)-3-carboxylic acid], in the data set on HBV DNA (setting [1]), the pEC50 was 5.15. In addition, the CC50 at 5 days in “in vitro” was > 100 µM.
For the compound `COC(=O)C1=C(CN2CC(F)(F)C[C@H]2C(=O)O)NC(c2nccs2)=NC1(C)c1ccc(F)cc1` (stereo partly drawn) [Example 11, 6-(2-(S)-Carboxy-4,4-difluoro-pyrrolidin-1-ylmethyl)-4-(4-fluoro-phenyl)-4-methyl-2-thiazol-2-yl-1,4-dihydro-pyrimidine-5-carboxylic acid methyl ester], in the data set on HBV DNA (setting [2]), the pEC50 was 6.34.
`COC(=O)C1=C(CN2CC(F)(F)C[C@@H]2C(=O)O)NC(c2nccs2)=NC1(C)c1ccc(F)cc1` (stereo partly drawn) [Example 12, 6-(2-(R)-Carboxy-4,4-difluoro-pyrrolidin-1-ylmethyl)-4-(4-fluoro-phenyl)-4-methyl-2-thiazol-2-yl-1,4-dihydro-pyrimidine-5-carboxylic acid methyl ester]: the pEC50 in the data set with HBV DNA (setting [2]) was 5.18.
Consider `COC(=O)C1=C(CN2CC(F)(F)C[C@H]2C(=O)O)NC(c2nccs2)=N[C@@]1(C)c1ccc(F)cc1` [Example 13, (S)-6-((S)-2-Carboxy-4,4-difluoro-pyrrolidin-1-ylmethyl)-4-(4-fluoro-phenyl)-4-methyl-2-thiazol-2-yl-1,4-dihydro-pyrimidine-5-carboxylic acid methyl ester], for which, in the data set with HBV DNA (setting [2]), the pEC50 is 6.82.
Regarding `COC(=O)C1=C(CN2CC(F)(F)C[C@H]2C(=O)O)NC(c2nccs2)=N[C@@]1(C)c1ccc(F)c(F)c1` [Example 14, (S)-6-((S)-2-Carboxy-4,4-difluoro-pyrrolidin-1-ylmethyl)-4-(3,4-difluoro-phenyl)-4-methyl-2-thiazol-2-yl-1,4-dihydro-pyrimidine-5-carboxylic acid methyl ester], the pEC50 in the data set with HBV DNA (setting [1]) was 6.70. Besides, the CC50 at 5 days in “in vitro” was > 100 µM.
On to `COC(=O)C1=C(CN2CCOC[C@H]2C(=O)O)NC(c2nccs2)=NC1(C)c1ccc(F)c(F)c1` (stereo partly drawn) [Example 16, 4-[6-(3,4-Difluoro-phenyl)-5-methoxycarbonyl-6-methyl-2-thiazol-2-yl-3,6-dihydro-pyrimidin-4-ylmethyl]-morpholine-3-carboxylic acid], for which the pEC50 in the data set with HBV DNA (setting [1]) is 6.60. Besides, in the data set “in vitro”, the CC50 at 5 days is > 100 µM.
As to `COC(=O)C1=C(CN2CC(F)(F)C[C@H]2C(=O)O)NC(c2ccc(F)cn2)=N[C@@]1(C)c1ccc(F)cc1` [Example 18, (S)-6-((S)-2-Carboxy-4,4-difluoro-pyrrolidin-1-ylmethyl)-4-(4-fluoro-phenyl)-2-(5-fluoro-pyridin-2-yl)-4-methyl-1,4-dihydro-pyrimidine-5-carboxylic acid methyl ester], the pEC50 in the data set on HBV DNA (setting [1]) is 6.24. Moreover, the CC50 at 5 days in the data set “in vitro” came to 25 µM.
Turning to `COC(=O)C1=C(CN2CC(F)(F)C[C@H]2C(=O)O)NC(c2ncc(C)s2)=NC1(C)c1ccc(F)cc1` (stereo partly drawn) [Example 19, 6-((S)-2-Carboxy-4,4-difluoro-pyrrolidin-1-ylmethyl)-4-(4-fluoro-phenyl)-4-methyl-2-(5-methyl-thiazol-2-yl)-1,4-dihydro-pyrimidine-5-carboxylic acid methyl ester], in the data set with HBV DNA (setting [1]), the pEC50 was 4.78. Further, the CC50 at 5 days in “in vitro” was > 100 µM.
`COC(=O)C1=C(CN2CC(F)(F)C[C@@]2(C)C(=O)O)NC(c2nccs2)=N[C@@]1(C)c1ccc(F)cc1` [Example 20, (S)-6-((S)-2-Carboxy-4,4-difluoro-2-methyl-pyrrolidin-1-ylmethyl)-4-(4-fluoro-phenyl)-4-methyl-2-thiazol-2-yl-1,4-dihydro-pyrimidine-5-carboxylic acid methyl ester]: the pEC50 with HBV DNA (setting [1]) was 5.55. For the same compound, the CC50 at 5 days in “in vitro” is > 100 µM.
The corresponding values for `C[C@@]1(c2ccc(F)cc2)N=C(c2nccs2)NC(CN2CC(F)(F)C[C@H]2C(=O)O)=C1C#N` [Example 21, (S)-1-[(S)-5-Cyano-6-(4-fluoro-phenyl)-6-methyl-2-thiazol-2-yl-3,6-dihydro-pyrimidin-4-ylmethyl]-4,4-difluoro-pyrrolidine-2-carboxylic acid] are 4.68 and > 100 µM.
`COC(=O)C1=C(CN2CC(F)(F)C[C@H]2C(=O)O)NC(c2ccc(F)s2)=N[C@@]1(C)c1ccc(F)cc1` [Example 38, (S)-6-((S)-2-carboxy-4,4-difluoro-pyrrolidin-1-ylmethyl)-4-(4-fluoro-phenyl)-2-(5-fluoro-thiophen-2-yl)-4-methyl-1,4-dihydro-pyrimidine-5-carboxylic acid methyl ester]: in the data set on HBV DNA (setting [1]), the pEC50 is 5.69.
`COC(=O)C1=C(CN2CC(F)(F)C[C@H]2C(=O)OC)NC(c2nccs2)=N[C@@]1(C)c1ccc(F)cc1` [Example 45, (S)-6-((S)-4,4-difluoro-2-methoxycarbonyl-pyrrolidin-1-ylmethyl)-4-(4-fluoro-phenyl)-4-methyl-2-thiazol-2-yl-1,4-dihydro-pyrimidine-5-carboxylic acid methyl ester]: in the data set “in vitro”, the CC50 at 5 days was ≥ 100 µM.
With `COC(=O)c1c(C)nc(-c2ncc(F)cc2F)nc1-c1ccc(F)cc1Cl` [XLVI], the negative logarithm of the EC50 (pEC50) in the data set with HBV DNA (read-out: EC50 value, HBV DNA reduction in HepDE19 cell based assays) was < 4.00.

The values above are taken from patent US9856247B2, “4-methyl-dihydropyrimidines for the treatment and prophylaxis of Hepatitis B virus infection” (Hoffmann-La Roche Inc., priority 2012, dated 2018).
